Legend:
[1] = biological target: Carbonic anhydrase 2 (Homo sapiens, UniProt P00918)
Description: Inhibitory activity against human recombinant carbonic anhydrase II (CA2)

[2] = biological target: T1, Carbonic anhydrase 4 (Bos taurus, UniProt Q95323)
T1 sequence (Q95323 whole entry): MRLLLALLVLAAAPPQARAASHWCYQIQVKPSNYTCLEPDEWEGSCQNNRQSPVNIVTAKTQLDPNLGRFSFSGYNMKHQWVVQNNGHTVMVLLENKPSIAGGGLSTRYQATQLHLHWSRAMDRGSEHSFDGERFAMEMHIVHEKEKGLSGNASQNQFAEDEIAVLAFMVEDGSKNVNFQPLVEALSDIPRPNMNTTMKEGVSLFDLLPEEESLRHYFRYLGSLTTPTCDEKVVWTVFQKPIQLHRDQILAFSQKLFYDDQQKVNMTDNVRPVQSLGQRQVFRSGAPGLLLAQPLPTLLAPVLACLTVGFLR
Description: Inhibitory activity against bovine carbonic anhydrase IV (CA4), obtained from bovine lung microsomes

[3] = biological target: Carbonic anhydrase 1 (Homo sapiens, UniProt P00915)
Carbonic anhydrase 1, sequence (P00915 whole entry): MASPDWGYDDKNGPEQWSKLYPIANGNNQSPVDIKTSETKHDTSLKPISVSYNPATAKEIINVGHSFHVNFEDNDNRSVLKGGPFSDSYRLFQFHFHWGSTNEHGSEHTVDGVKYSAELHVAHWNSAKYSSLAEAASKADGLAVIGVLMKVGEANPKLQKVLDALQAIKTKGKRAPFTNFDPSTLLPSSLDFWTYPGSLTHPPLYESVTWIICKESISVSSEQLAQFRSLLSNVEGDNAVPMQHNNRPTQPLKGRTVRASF
Description: Inhibitory activity against human recombinant carbonic anhydrase I (CA1)

Ki [1] [nM] | Ki [2] [nM] | Ki [3] [nM] | SMILES
10 | 29 | 59 | C[C@H](CCC(=O)Nc1c(S(N)(=O)=O)cc(S(N)(=O)=O)c(Cl)c1Cl)[C@H]1CC[C@H]2[C@@H]3[C@@H](O)C[C@@H]4C[C@H](O)CC[C@]4(C)[C@H]3CC[C@]12C
82 | 168 | 970 | C[C@H](CCC(=O)Nc1ccc(S(N)(=O)=O)cc1Cl)[C@H]1CC[C@H]2[C@@H]3[C@H](O)C[C@@H]4C[C@H](O)CC[C@]4(C)[C@H]3C[C@H](O)[C@]12C
5.2 | 9 | 44 | C[C@H](CCC(=O)OCCOc1ccc2nc(S(N)(=O)=O)sc2c1)[C@H]1CC[C@H]2[C@@H]3[C@H](O)C[C@@H]4C[C@H](O)CC[C@]4(C)[C@H]3CC[C@]12C
5 | 10 | 35 | C[C@H](CCC(=O)Nc1ccc2nc(S(N)(=O)=O)sc2c1)[C@H]1CC[C@H]2[C@@H]3[C@H](O)C[C@@H]4C[C@H](O)CC[C@]4(C)[C@H]3C[C@H](O)[C@]12C
1.4 | 8 | 36 | C[C@H](CCC(=O)OCCOc1ccc2nc(S(N)(=O)=O)sc2c1)[C@H]1CC[C@H]2[C@@H]3CC[C@@H]4C[C@H](O)CC[C@]4(C)[C@H]3CC[C@]12C
210 | 355 | 12000 | C[C@H](CCC(=O)Nc1ccc(S(N)(=O)=O)cc1)[C@H]1CC[C@H]2[C@@H]3CC[C@@H]4C[C@H](O)CC[C@]4(C)[C@H]3C[C@H](O)[C@]12C
80 | 300 | 1150 | C[C@H](CCC(=O)OCCc1ccc(S(N)(=O)=O)cc1)[C@H]1CC[C@H]2[C@@H]3[C@H](O)C[C@@H]4C[C@H](O)CC[C@]4(C)[C@H]3C[C@H](O)[C@]12C
280 | 975 | 20100 | C[C@H](CCC(=O)Nc1ccccc1S(N)(=O)=O)[C@H]1CC[C@H]2[C@@H]3CC[C@@H]4C[C@H](O)CC[C@]4(C)[C@H]3C[C@H](O)[C@]12C
81 | 310 | 625 | C[C@H](CCC(=O)OCCc1ccc(S(N)(=O)=O)cc1)[C@H]1CC[C@H]2[C@@H]3CC[C@@H]4C[C@H](O)CC[C@]4(C)[C@H]3CC[C@]12C
55 | 110 | 521 | C[C@H](CCC(=O)Nc1ccc(S(N)(=O)=O)cc1I)[C@H]1CC[C@H]2[C@@H]3[C@H](O)C[C@@H]4C[C@H](O)CC[C@]4(C)[C@H]3CC[C@]12C
96 | 244 | 3450 | C[C@H](CCC(=O)NCc1ccc(S(N)(=O)=O)cc1)[C@H]1CC[C@H]2[C@@H]3[C@H](O)C[C@@H]4C[C@H](O)CC[C@]4(C)[C@H]3CC[C@]12C
48 | 83 | 910 | C[C@H](CCC(=O)NCc1ccc(S(N)(=O)=O)cc1)[C@H]1CC[C@H]2[C@@H]3CC[C@@H]4C[C@H](O)CC[C@]4(C)[C@H]3CC[C@]12C
50 | 130 | 200 | C[C@H](CCC(=O)Nc1nnc(S(N)(=O)=O)s1)[C@H]1CC[C@H]2[C@@H]3CC[C@@H]4C[C@H](O)CC[C@]4(C)[C@H]3C[C@H](O)[C@]12C
86 | 220 | 3400 | C[C@H](CCC(=O)NCCc1ccc(S(N)(=O)=O)cc1)[C@H]1CC[C@H]2[C@@H]3[C@H](O)C[C@@H]4C[C@H](O)CC[C@]4(C)[C@H]3C[C@H](O)[C@]12C

SMILES | Ki [1] [nM] | Ki [2] [nM] | Ki [3] [nM]
C[C@H](CCC(=O)OCc1ccc(S(N)(=O)=O)cc1)[C@H]1CC[C@H]2[C@@H]3C(=O)C[C@@H]4CC(=O)CC[C@]4(C)[C@H]3CC(=O)[C@]12C | 71 | 200 | 450
C[C@H](CCC(=O)OCc1ccc(S(N)(=O)=O)cc1)[C@H]1CC[C@H]2[C@@H]3[C@H](O)C[C@@H]4C[C@H](O)CC[C@]4(C)[C@H]3CC[C@]12C | 98 | 340 | 1230

Source: ChEMBL document CHEMBL1135136, “Carbonic anhydrase inhibitors. Preparation of potent sulfonamides inhibitors incorporating bile acid tails” (Bioorg Med Chem Lett, 2002)
